From US4772602A, “N-substituted 3,4-dihydropyrimidine derivatives as agents for treating disorders of cardiovascular system” (Suntory Limited, priority 1985, dated 1988)

Each compound was assayed on vertebral artery (assay: vascular resistance of the vertebral artery in anesthetized dogs (ED30)). Conditions: Canis lupus familiaris, intravenous injection.
Format: in vivo, dog
Procedure: The pharmacological effect (ED30) of the compounds of the present invention with respect to the vascular resistance of the vertebral artery in anesthetized dogs was treated by the following procedure.
Adult dogs of either sex (7-14 kg in body weight) were anesthetized with at first thiopental sodium (35 mg/kg, intraperitoneal), anesthetized with urethane (400 mg/kg, intravenous) and chloralose (60 mg/kg, intravenous) and kept under artificial respiration throughout the experiment. After thoracotomy at the left first intercostal space, the vertebral artery was exposed and blood flow was measured with intracorporeal flow probe connected to an electromagnetic flowmeter (MF-27, Nihon Kohden).
At the same time, continuous measurement of the following parameters was made: systemic blood pressure (mean pressure) at the right femoral artery, the limb lead II ECG, the heart rate with a tachometer triggered by the R wave of ECG, and the vascular resistance determined by loading a electronic divider unit (EO-601 G, Nihon Kohden) with the mean values of blood pressure and vertebral artery blood flow. All of these parameters were recorded simultaneously on a polygraph (RM-600, Nihon Kohden).
All the test compounds were injected through a cannula inserted into the femoral vein.
The ED30 (μg/kg) values obtained by intravenous injection are listed in Table 4, wherein the Compound Numbers are keyed to the Example Numbers.

Compared with CC1=NC(C)=C(C(=O)OCC2CC2)C(c2ccccc2[N+](=O)[O-])N1C(=O)OCCN(C)C(c1ccccc1)c1ccccc1 (centres unmarked) [Compound 8], CC1=NC(C)=C(C(=O)OCC2CC2)C(c2ccccc2[N+](=O)[O-])N1C(=O)OCCN(Cc1ccccc1)Cc1ccccc1 (centres unmarked) [Compound 52] is 2.7-fold lower in ED30: 4.1 µg/kg for the first, 1.5 µg/kg for the second.

Compared with CCCCN(CCOC(=O)N1C(C)=NC(C)=C(C(=O)OCC2CC2)C1c1ccccc1[N+](=O)[O-])Cc1ccccc1 (centres unmarked) [Compound 14], CC1=NC(C)=C(C(=O)OCC2CC2)C(c2ccccc2[N+](=O)[O-])N1C(=O)OCCCN(C)Cc1ccccc1 (centres unmarked) [Compound 16] is 1.8-fold higher in ED30: 2.1 µg/kg for the first, 3.8 µg/kg for the second.

CCN(CCOC(=O)N1C(C)=NC(C)=C(C(=O)OCC2CC2)C1c1ccccc1[N+](=O)[O-])c1ccccc1 (centres unmarked) [Compound 15] and CC1=NC(C)=C(C(=O)OCC2CC2)C(c2ccccc2[N+](=O)[O-])N1C(=O)OCCN(C)CCc1ccccc1 (centres unmarked) [Compound 17] are within 1.5-fold of each other in ED30: 2.5 µg/kg for the first, 3.4 µg/kg for the second.

CC1=NC(C)=C(C(=O)OCC2CC2)C(c2ccccc2[N+](=O)[O-])N1C(=O)OCC1CCCN1Cc1ccccc1 (centres unmarked) [Compound 19] and CC1=NC(C)=C(C(=O)OCC2CC2)C(c2ccccc2[N+](=O)[O-])N1C(=O)OCCc1cccs1 (centres unmarked) [Compound 63] are within 1.5-fold of each other in ED30: 1.4 µg/kg for the first, 1.3 µg/kg for the second.

CC1=NC(C)=C(C(=O)OCC2CC2)C(c2ccccc2[N+](=O)[O-])N1C(=O)OCCN1CCOCC1 (centres unmarked) [Compound 20] and CC1=NC(C)=C(C(=O)OCC2CC2)C(c2ccccc2[N+](=O)[O-])N1C(=O)OCCN1CCN(c2cccc(C(F)(F)F)c2)CC1 (centres unmarked) [Compound 26] are within 1.5-fold of each other in ED30: 4 µg/kg for the first, 4.1 µg/kg for the second.

CC1=NC(C)=C(C(=O)OCC2CC2)C(c2ccccc2[N+](=O)[O-])N1C(=O)OCCN(C/C=C/c1ccccc1)Cc1ccccc1 (centres unmarked) [Compound 29] and CC1=NC(C)=C(C(=O)OCC2CC2)C(c2ccccc2[N+](=O)[O-])N1C(=O)OCCN(C/C=C/c1ccccc1)Cc1cccs1 (centres unmarked) [Compound 32] are within 1.5-fold of each other in ED30: 2.5 µg/kg for the first, 3.2 µg/kg for the second.

Going from CC1=NC(C)=C(C(=O)OCC2CC2)C(c2ccccc2[N+](=O)[O-])N1C(=O)OCCN(C)Cc1ccc2ccccc2c1 (centres unmarked) [Compound 30] to CC1=NC(C)=C(C(=O)OCC2CC2)C(c2ccccc2[N+](=O)[O-])N1C(=O)OCCN(C)Cc1ccccn1 (centres unmarked) [Compound 35], the ED30 rises from 0.6 µg/kg to 4.2 µg/kg (7-fold).

Compared with CCOC(=O)C1=C(C)N=C(C)N(C(=O)OCCN(CCCc2ccccc2)Cc2ccccc2)C1c1cccc([N+](=O)[O-])c1 (centres unmarked) [Compound 38], CCOC(=O)C1=C(C)N=C(C)N(C(=O)OCCN(CCCc2ccccc2)Cc2ccccc2)C1c1ccccc1[N+](=O)[O-] (centres unmarked) [Compound 40] is 2.8-fold lower in ED30: 4.2 µg/kg for the first, 1.5 µg/kg for the second.

First: CC1=NC(C)=C(C(=O)OC(C)C)C(c2ccccc2[N+](=O)[O-])N1C(=O)OCCN(CCCc1ccccc1)Cc1ccccc1 (centres unmarked) [Compound 39]
Second: CC1=NC(C)=C(C(=O)OC(C)C)C(c2ccccc2[N+](=O)[O-])N1C(=O)OCCN(CCc1ccccc1)Cc1ccccc1 (centres unmarked) [Compound 62]
The ED30 of the first is 1.9-fold higher: 2.3 µg/kg for the first, 1.2 µg/kg for the second.

Going from CC1=NC(C)=C(C(=O)OC(C)C)C(c2ccccc2[N+](=O)[O-])N1C(=O)OCCN(Cc1ccccc1)Cc1ccc2ccccc2c1 (centres unmarked) [Compound 45] to CC1=NC(C)=C(C(=O)OC(C)C)C(c2ccccc2[N+](=O)[O-])N1C(=O)OCCN(Cc1ccccc1)Cc1ccccc1 (centres unmarked) [Compound 49], the ED30 rises from 1.8 µg/kg to 2.8 µg/kg (1.6-fold).

CCCOC(=O)C1=C(C)N=C(C)N(C(=O)OCCN(Cc2ccccc2)Cc2ccccc2)C1c1ccccc1[N+](=O)[O-] (centres unmarked) [Compound 46] and CCOC(=O)C1=C(C)N=C(C)N(C(=O)OCCN(Cc2ccccc2)Cc2ccccc2)C1c1ccccc1[N+](=O)[O-] (centres unmarked) [Compound 61] are within 1.5-fold of each other in ED30: 2 µg/kg for the first, 1.4 µg/kg for the second.

First: COC(=O)C1=C(C)N=C(C)N(C(=O)OCCN(Cc2ccccc2)Cc2ccccc2)C1c1ccccc1[N+](=O)[O-] (centres unmarked) [Compound 48]
Second: COC(=O)C1=C(C)N=C(C)N(C(=O)OCCN(CCCc2ccccc2)Cc2ccccc2)C1c1ccccc1[N+](=O)[O-] (centres unmarked) [Compound 57]
The ED30 of the first is 4.2-fold higher: 2 µg/kg for the first, 0.48 µg/kg for the second.

Going from CC1=NC(C)=C(C(=O)OC(C)C)C(c2ccccc2[N+](=O)[O-])N1C(=O)OCCN(Cc1ccccc1)c1ccccc1 (centres unmarked) [Compound 50] to CC1=NC(C)=C(C(=O)OC(C)C)C(c2ccccc2[N+](=O)[O-])N1C(=O)OCCN(CCc1ccccc1)c1ccccc1 (centres unmarked) [Compound 54], the ED30 rises from 0.74 µg/kg to 1.4 µg/kg (1.9-fold).

CC1=NC(C)=C(C(=O)OC(C)C)C(c2ccccc2[N+](=O)[O-])N1C(=O)OCCN(CCCc1ccccc1)c1ccccc1 (centres unmarked) [Compound 53] and CC1=NC(C)=C(C(=O)OCC(C)C)C(c2ccccc2[N+](=O)[O-])N1C(=O)OCCN(Cc1ccccc1)c1ccccc1 (centres unmarked) [Compound 60] are within 1.5-fold of each other in ED30: 2.5 µg/kg for the first, 1.7 µg/kg for the second.

CC1=NC(C)=C(C(=O)OCC(C)C)C(c2ccccc2[N+](=O)[O-])N1C(=O)OCCN(Cc1ccccc1)Cc1ccccc1 (centres unmarked) [Compound 55] and CC1=NC(C)=C(C(=O)OC(C)C)C(c2ccccc2[N+](=O)[O-])N1C(=O)OCCN(Cc1ccccc1)Cc1ccccn1 (centres unmarked) [Compound 68] are within 1.5-fold of each other in ED30: 3.8 µg/kg for the first, 4.4 µg/kg for the second.

First: CC1=NC(C)=C(C(=O)OC(C)C)C(c2ccccc2[N+](=O)[O-])N1C(=O)OCCN(Cc1ccccn1)c1ccccc1 (centres unmarked) [Compound 58]
Second: COC(=O)C1=C(C)N=C(C)N(C(=O)OCCN(Cc2ccccc2)c2ccccc2)C1c1ccccc1[N+](=O)[O-] (centres unmarked) [Compound 71]
The ED30 of the first is 2-fold lower: 2.5 µg/kg for the first, 5 µg/kg for the second.

CC1=NC(C)=C(C(=O)OCC2CC2)C(c2ccccc2[N+](=O)[O-])N1C(=O)OCCSc1nc2ccccc2s1 (centres unmarked) [Compound 64] and CC1=NC(C)=C(C(=O)OC(C)C)C(c2ccccc2[N+](=O)[O-])N1C(=O)OCCN(Cc1ccccc1)Cc1cccs1 (centres unmarked) [Compound 67] are within 1.5-fold of each other in ED30: 0.93 µg/kg for the first, 1 µg/kg for the second.

Work on CC1=NC(C)=C(C(=O)OC(C)C)C(c2cccc([N+](=O)[O-])c2)N1C(=O)OCCN(Cc1ccccc1)c1ccccc1 (centres unmarked) [Compound 70] yielded an ED30 of 3 µg/kg.

The compounds below were run on vertebral artery (assay: time course of reduction of the resistance of the vertebral artery in anesthetized dogs (T1/2)). Conditions: ED30 doses injected.
Format: in vivo, dog
Procedure: Selected compounds of the present invention were tested for their ability to reduce the resistance of the vertebral artery in anesthetized dogs.
The animals were injected with the ED30 doses of test compounds and the time course of changes in the vasucular resistance were studied as shown schematically in FIG. 1. From the curve shown in FIG. 1, the values of T1/2 (min) (the time to reach 50% of the resistance drop). The results are shown in Table 5, in which the compound numbers correspond to the Example numbers.

First: CC1=NC(C)=C(C(=O)OCC2CC2)C(c2ccccc2[N+](=O)[O-])N1C(=O)OCCN(C/C=C/c1ccccc1)Cc1ccccc1 (centres unmarked) [Compound 29]
Second: CC1=NC(C)=C(C(=O)OCC2CC2)C(c2ccccc2[N+](=O)[O-])N1C(=O)OCCN(C/C=C/c1ccccc1)C/C=C/c1ccccc1 (centres unmarked) [Compound 33]
The “T1/2 (the time to reach 50% of the resistance drop)” value of the first is 3.2-fold lower: 9.5 min for the first, 30.5 min for the second.

CC1=NC(C)=C(C(=O)OCC2CC2)C(c2ccccc2[N+](=O)[O-])N1C(=O)OCCN(C/C=C/c1ccccc1)Cc1cccs1 (centres unmarked) [Compound 32] and CC1=NC(C)=C(C(=O)OCC2CC2)C(c2ccccc2[N+](=O)[O-])N1C(=O)OCCN(Cc1ccccc1)Cc1ccccc1 (centres unmarked) [Compound 52] are within 1.5-fold of each other in “T1/2 (the time to reach 50% of the resistance drop)” value: 7.0 min for the first, 8.0 min for the second.

Going from CC1=NC(C)=C(C(=O)OCC2CC2)C(c2cccc([N+](=O)[O-])c2)N1C(=O)OCCN(CCCc1ccccc1)Cc1ccccc1 (centres unmarked) [Compound 36] to CCOC(=O)C1=C(C)N=C(C)N(C(=O)OCCN(CCCc2ccccc2)Cc2ccccc2)C1c1cccc([N+](=O)[O-])c1 (centres unmarked) [Compound 38], the “T1/2 (the time to reach 50% of the resistance drop)” value falls from 12.0 min to 8.0 min (1.5-fold).

CC1=NC(C)=C(C(=O)OC(C)C)C(c2cccc([N+](=O)[O-])c2)N1C(=O)OCCN(CCCc1ccccc1)Cc1ccccc1 (centres unmarked) [Compound 37] and CC1=NC(C)=C(C(=O)OC(C)C)C(c2ccccc2[N+](=O)[O-])N1C(=O)OCCN(CCCc1ccccc1)CCCc1ccccc1 (centres unmarked) [Compound 66] are within 1.5-fold of each other in “T1/2 (the time to reach 50% of the resistance drop)” value: 10.3 min for the first, 11.9 min for the second.

First: CC1=NC(C)=C(C(=O)OC(C)C)C(c2ccccc2[N+](=O)[O-])N1C(=O)OCCN(Cc1ccccc1)Cc1ccc2ccccc2c1 (centres unmarked) [Compound 45]
Second: CC1=NC(C)=C(C(=O)OCC(C)C)C(c2ccccc2[N+](=O)[O-])N1C(=O)OCCN(Cc1ccccc1)Cc1ccccc1 (centres unmarked) [Compound 55]
The “T1/2 (the time to reach 50% of the resistance drop)” value of the first is 1.7-fold higher: 15.6 min for the first, 9.2 min for the second.

First: CCCCOC(=O)C1=C(C)N=C(C)N(C(=O)OCCN(Cc2ccccc2)Cc2ccccc2)C1c1ccccc1[N+](=O)[O-] (centres unmarked) [Compound 47]
Second: CC1=NC(C)=C(C(=O)OC(C)C)C(c2ccccc2[N+](=O)[O-])N1C(=O)OCCN(CCCc1ccccc1)c1ccccc1 (centres unmarked) [Compound 53]
The “T1/2 (the time to reach 50% of the resistance drop)” value of the first is 1.7-fold higher: 13.0 min for the first, 7.7 min for the second.
